US20240300936A1 (priority 2021, published 2024)
Counter-ions that a name gives are not always drawn. Like-named read-outs stand apart in the source and are kept apart here.

Tested on: HELA cells
Assay: HELA cell proliferation assay (CellTitre-Glo, 6 days)
Assay type: cell-based
Details: Homo sapiens, 144 h
[1] = HELA cells, 6 days treatment, CellTitre-Glo, read-out: HeLa pIC50 (converted)
[2] = HeLa, read-out: HeLa pIC50 (M) (converted)

| SMILES | IC50 [1] [M] | IC50 [2] [M] |
| --- | --- | --- |
| Cn1ncc2ccc(-c3nc(N)nc(NC4(c5ccn(C(F)F)n5)CCC4)n3)cc21 [Example 82, N4-[1-[1-(Difluoromethyl)pyrazol-3-yl]cyclobutyl]-6-(1-methylindazol-6-yl)-1,3,5-triazine-2,4-diamine] | 2.4e-06 |  |
| Nc1nc(NC2(c3ccn(C(F)F)n3)CC2)nc(-c2ccc3cncn3c2)n1 [Example 35, N4-[1-[1-(Difluoromethyl)pyrazol-3-yl]cyclopropyl]-6-imidazo[1,5-a]pyridin-6-yl-1,3,5-triazine-2,4-diamine] | 1.48e-07 |  |
| Cn1ncc2ccc(-c3nc(N)nc(NC(C)(C)c4ccn(C(F)F)n4)n3)cc21 [Example 101, N2-[1-[1-(difluoromethyl)pyrazol-3-yl]-1-methyl-ethyl]-6-(1-methylindazol-6-yl)-1,3,5-triazine-2,4-diamine] | 2.57e-07 |  |
| CC(C)(Nc1nc(N)nc(-c2ccc3cn[nH]c3c2)n1)c1ccn(CCN2CCCC2)n1 [Example 83, 6-(1H-Indazol-6-yl)-N2-[1-methyl-1-[1-(2-pyrrolidin-1-ylethyl)pyrazol-3-yl]ethyl]-1,3,5-triazine-2,4-diamine hydrochloride] |  | 7.08e-07 |
| Nc1nc(NC2(c3nn(C(F)F)cc3Cl)CC2)nc(-c2ccc3cn[nH]c3c2)n1 [Example 84, N4-[1-[4-chloro-1-(difluoromethyl)pyrazol-3-yl]cyclopropyl]-6-(1H-indazol-6-yl)-1,3,5-triazine-2,4-diamine] | 6.46e-07 |  |
| Nc1nc(NCc2cccc(F)c2F)nc(-c2ccc3cncn3c2)n1 [Example 30, N4-[(2,3-Difluorophenyl)methyl]-6-imidazo[1,5-a]pyridin-6-yl-1,3,5-triazine-2,4-dia mine] | 1.55e-07 |  |
| CN(c1nc(N)nc(-c2ccc3cncn3c2)n1)C(C)(C)c1ccn(C(F)F)n1 [Example 34, N4-[1-[1-(difluoromethyl)pyrazol-3-yl]-1-methyl-ethyl]-6-imidazo[1,5-a]pyridin-6-yl-N4-methyl-1,3,5-triazine-2,4-diamine] | 7.76e-07 |  |
| Cc1cccc(CCNc2nc(N)nc(-c3ccc4cn[nH]c4c3)n2)n1 [Example 54, 6-(1H-indazol-6-yl)-N2-[2-(6-methyl-2-pyridyl)ethyl]-1,3,5-triazine-2,4-diamine] | 1.66e-06 |  |
| Nc1nc(NC2(c3ccccn3)CC2)nc(-c2ccc3cn[nH]c3c2)n1 [Example 6, 6-(1H-indazol-6-yl)-N2-[1-(2-pyridyl)cyclopropyl]-1,3,5-triazine-2,4-diamine] | 5.89e-07 |  |
| Cc1ccc(CNc2nc(N)nc(-c3ccc4cn[nH]c4c3)n2)c(F)c1F [Example 88, N2-[(2,3-Difluoro-4-methyl-phenyl)methyl]-6-(1H-indazol-6-yl)-1,3,5-triazine-2,4-diamine] | 1.29e-06 |  |
| CC(C)(Nc1nc(N)nc(-c2ccc3cncn3c2)n1)c1ccccn1 [Example 72, 6-imidazo[1,5-a]pyridin-6-yl-N2-[1-methyl-1-(2-pyridyl)ethyl]-1,3,5-triazine-2,4-di amine] | 4.07e-07 |  |
| CC(C)(Nc1nc(N)nc(-c2ccc3cn[nH]c3c2)n1)c1ccn(C(F)F)n1 [Example 60, N2-[1-[1-(difluoromethyl)pyrazol-3-yl]-1-methyl-ethyl]-6-(1H-indazol-6-yl)-1,3,5-tri azine-2,4-diamine] | 3.47e-08 |  |
| Nc1nc(NCc2cccc(C(F)(F)F)n2)nc(-c2ccc3cn[nH]c3c2)n1 [Example 8, 6-(1H-indazol-6-yl)-N2-[[6-(trifluoromethyl)-2-pyridyl]methyl]-1,3,5-triazine-2,4-diamine] | 9.33e-07 |  |
| Nc1nc(NCc2cccc(F)c2Cl)nc(-c2ccc3cncn3c2)n1 [Example 73, N2-[(2-chloro-3-fluoro-phenyl)methyl]-6-imidazo[1,5-a]pyridin-6-yl-1,3,5-triazine-2,4-diamine] | 4.27e-07 |  |
| CC(C)(Nc1nc(N)nc(-c2ccc3cn[nH]c3c2)n1)c1ccccn1 [Example 12, 6-(1H-indazol-6-yl)-N2-[1-methyl-1-(2-pyridyl)ethyl]-1,3,5-triazine-2,4-diamine hydrochloride] |  | 1.74e-07 |
| Nc1nc(NCc2ccn(C(F)F)n2)nc(-c2ccc3cncn3c2)n1 [Example 74, N2-[[1-(difluoromethyl)pyrazol-3-yl]methyl]-6-imidazo[1,5-a]pyridin-6-yl-1,3,5-tria zine-2,4-diaminediamine] | 4.9e-07 |  |
| Nc1nc(NC2(c3c[nH]cn3)CC2)nc(-c2ccc3cn[nH]c3c2)n1 [Example 86, N2-[1-(1H-Imidazol-4-yl)cyclopropyl]-6-(1H-indazol-6-yl)-1,3,5-triazine-2,4-dia mine; 2,2,2-trifluoroacetate] | 1e-05 |  |
| CN(CCc1cccc(Cl)c1Cl)c1nc(N)nc(-c2ccc3cn[nH]c3c2)n1 [Example 43, N4-[2-(2,3-dichlorophenyl)ethyl]-6-(1H-indazol-6-yl)-N4-methyl-1,3,5-triazine-2,4-diamine] | 2.09e-06 |  |
| Cc1ncc2ccc(-c3nc(N)nc(NC(C)(C)c4cccc(F)c4F)n3)cn12 [Example 39, N4-[1-(2,3-difluorophenyl)-1-methyl-ethyl]-6-(3-methylimidazo[1,5-a]pyridin-6-yl)-1,3,5-triazine-2,4-diamine] | 4.17e-07 |  |

| SMILES | IC50 [1] [M] | IC50 [2] [M] |
| --- | --- | --- |
| Nc1nc(NC2(c3ccn(C(F)F)n3)CC2)nc(-c2ccc3cn[nH]c3c2)n1 [Example 22, N2-[1-[1-(Difluoromethyl)pyrazol-3-yl]cyclopropyl]-6-(1H-indazol-6-yl)-1,3,5-triazine-2,4-diamine] | 1.35e-07 |  |
| CC(C)(Nc1nc(N)nc(-c2cc(F)c3cn[nH]c3c2)n1)c1ccn(C(F)F)n1 [Example 104, N2-[1-[1-(difluoromethyl)pyrazol-3-yl]-1-methyl-ethyl]-6-(4-fluoro-1H-indazol-6-yl)-1,3,5-triazine-2,4-diamine] | 2.19e-07 |  |
| Nc1nc(NCc2cccc(F)c2F)nc(-c2ccc3cn[nH]c3c2)n1 [Example 70, N2-[(2,3-difluorophenyl)methyl]-6-(1H-indazol-6-yl)-1,3,5-triazine-2,4-diamine] | 1.15e-07 |  |
| Nc1nc(-c2ccc3cn[nH]c3c2)nc(N2CCOCC2Cc2cccc(Cl)c2Cl)n1 (stereo not shown) [Example 3, 4-[3-[(2,3-dichlorophenyl)methyl]morpholin-4-yl]-6-(1H-indazol-6-yl)-1,3,5-triaz in-2-amine hydrochloride] |  | 2.95e-06 |
| Nc1nc(NCc2c(Cl)ccc(F)c2F)nc(-c2ccc3cn[nH]c3c2)n1 [Example 51, N2-[(6-chloro-2,3-difluoro-phenyl)methyl]-6-(1H-indazol-6-yl)-1,3,5-triazine-2,4-di amine] | 1.48e-06 |  |
| Nc1nc(NCc2cccc(F)c2Cl)nc(-c2ccc3cn[nH]c3c2)n1 [Example 24, N2-[(2-chloro-3-fluoro-phenyl)methyl]-6-(1H-indazol-6-yl)-1,3,5-triazine-2,4-dia mine] | 2.88e-07 |  |
| Nc1nc(NC2(c3cccc(F)c3F)CC2)nc(-c2ccc3cn[nH]c3c2)n1 [Example 23, N2-[1-(2,3-Difluorophenyl)cyclopropyl]-6-(1H-indazol-6-yl)-1,3,5-triazine-2,4-diamine] | 2.24e-07 |  |
| CC(C)(Nc1nc(N)nc(-c2ccc3cn[nH]c3c2)n1)c1cccc(C(F)(F)F)n1 [Example 4, 6-(1H-indazol-6-yl)-N2-[1-methyl-1-[6-(trifluoromethyl)-2-pyridyl]ethyl]-1,3,5-tr iazine-2,4-diamine hydrochloride] |  | 1.7e-07 |
| CC(C)(Nc1nc(N)nc(-c2ccc3cn[nH]c3c2)n1)c1cccc(F)c1F [Example 28, N2-[1-(2,3-difluorophenyl)-1-methyl-ethyl]-6-(1H-indazol-6-yl)-1,3,5-triazine-2,4-di amine] | 1.91e-07 |  |
| Nc1nc(NC2(c3ccn(C(F)F)n3)CCC2)nc(-c2ccc3cn[nH]c3c2)n1 [Example 81, N2-[1-[1-(Difluoromethyl)pyrazol-3-yl]cyclobutyl]-6-(1H-indazol-6-yl)-1,3,5-tria zine-2,4-diamine] | 2.14e-07 |  |
| Nc1nc(NC2COc3cc(F)ccc32)nc(-c2ccc3cn[nH]c3c2)n1 (stereo not shown) [Example 89, N2-(6-fluoro-2,3-dihydrobenzofuran-3-yl)-6-(1H-indazol-6-yl)-1,3,5-triazine-2,4-diamine] | 8.51e-07 |  |
| Cn1ncc2ccc(-c3nc(N)nc(NC(C)(C)c4nn(C(F)F)cc4Cl)n3)cc21 [Example 97, N4-[1-[4-chloro-1-(difluoromethyl)pyrazol-3-yl]-1-methyl-ethyl]-6-(1-methylindazol-6-yl)-1,3,5-triazine-2,4-diamine] | 7.94e-07 |  |
| CC(C)(Nc1nc(N)nc(-c2ccc3cncn3c2)n1)c1ccn(C(F)F)n1 [Example 36, N4-[1-[1-(difluoromethyl)pyrazol-3-yl]-1-methyl-ethyl]-6-imidazo[1,5-a]pyridin-6-yl-1,3,5-triazine-2,4-diamine] | 4.47e-08 |  |
| Nc1nc(NC2COc3cccc(F)c32)nc(-c2ccc3cn[nH]c3c2)n1 (stereo not shown) [Example 5, N2-(4-fluoro-2,3-dihydrobenzofuran-3-yl)-6-(1H-indazol-6-yl)-1,3,5-triazine-2,4-diamine] | 3.39e-06 |  |
| Cc1ncc2ccc(-c3nc(N)nc(NC(C)(C)c4ccn(C(F)F)n4)n3)cn12 [Example 37, N4-[1-[1-(difluoromethyl)pyrazol-3-yl]-1-methyl-ethyl]-6-(3-methylimidazo[1,5-a]pyridin-6-yl)-1,3,5-triazine-2,4-diamine] | 3.55e-07 |  |
| Nc1nc(NC2(c3cccc(C(F)(F)F)n3)CC2)nc(-c2ccc3cn[nH]c3c2)n1 [Example 1, 6-(1H-indazol-6-yl)-N2-[1-[6-(trifluoromethyl)-2-pyridyl]cyclopropyl]-1,3,5-triazine-2,4-diamine hydrochloride] |  | 1.07e-06 |
| CC(C)(Nc1nc(N)nc(-c2ccc3cn[nH]c3c2F)n1)c1ccn(C(F)F)n1 [Example 102, N2-[1-[1-(difluoromethyl)pyrazol-3-yl]-1-methyl-ethyl]-6-(7-fluoro-1H-indazol-6-yl)-1,3,5-triazine-2,4-diamine] | 2.95e-07 |  |
| Nc1nc(NC2COc3cc(F)cc(F)c32)nc(-c2ccc3cn[nH]c3c2)n1 (stereo not shown) [Example 90, N2-(4,6-Difluoro-2,3-dihydrobenzofuran-3-yl)-6-(1H-indazol-6-yl)-1,3,5-triazine-2,4-diamine] | 1.55e-06 |  |
